In patent US20140106387A1, “METHOD FOR CONTROLLING NAD(P)/NAD(P)H RATIO BY OXIDOREDUCTASE” (MD BIOALPHA CO., LTD., priority 2006, published 2014):

What was measured:
ACC, CPT, HAD = test: enzyme assays, malonyl-CoA content and fatty acid oxidation in DIO mice; type: in vivo, mouse
Protocol: For Enzyme assays, cytoplasm was extracted from mouse tissues. Dicoumarol-sensitive NQO1 activity was determined by a conventional method known in the art: This method is based on an absorbance decrease at 600 nm due to bioreduction of DCPIP. Total AMPK activity was determined with a known method using synthetic “SAMS” peptides and [γ-^32P] ATP. ACC activity was determined by quantifying fixation of ^14CO2 to the acid-stable product in the presence/absence of citrate (2 mM) as an allosteric activator of ACC. CPT (carnitine palmitoyl transferase) activity was measured in L6 myoblasts and soleus muscle by a known method. HAD (3-hydroxyacyl-CoA dehydrogenase) activity was determined in L6 myoblasts and soleus muscle by monitoring conversion of acetoacetyl-CoA into L-3-hydroxybutyryl CoA and the concomitant oxidation of NADH into NAD^+. The reaction was monitored at 340 nm by a known method.
[^14C]palmitoyl-CoA (Perkin Elmer) oxidation was determined in L6 myoblasts and soleus muscle by a known method using labeled CO2 and 0.2 mL of benzethonium chloride solution.
Contents of Malonyl-CoA were determined by a known method, e.g. HPLC. Acyl-CoA esters were separated by HPLC using 0.2 M ammonium acetate-containing acetonitrile/water (1.75:98.25). Samples were washed with 20 min, and subjected to 100 min linear gradient elution from acetonitrile/water (10:90) containing 0.2 M ammonium acetate.
That is, such facts mean that chronic treatment of βL can accelerate mitochondrial oxidative phosphorylation and enhance adaptive mitochondrial biogenesis. Therefore, βL can be used as a therapeutic agent for metabolic diseases.

HepG2 cells = test: intracellular NADH / NAD(P)H concentration in HepG2 cells; type: cell-based, human
Protocol: A water-soluble tetrazolium salt was used to monitor the amount of NAD(P)H through its reduction to a yellow colored formazan dye. The total amount of NAD(P)H within viable cells in the medium was determined periodically by a spectrophotometer. Cells were seeded in 96-well plates (2×10^4 cells/well) and were cultured in 100 μl of a medium containing fetal bovine serum (FBS) and antibiotics for 24 hours. Immediately after treatment of the cells with a candidate compound (e.g., pyrano-1,2-naphthoquinone) at indicated concentrations and a 1/10 volume of a CCK-8 solution (Dojindo Molecular Technology), absorbance measurements were carried out using a spectrophotometer. […] In addition, a medium blank was prepared with only medium and physiological saline. In order to monitor monochromatic fluorescence (350 nm), light was illuminated using a 75 W xenon arc lamp directed via a 10 Hz chopper wheel; specific fluorescence intensity was measured at a wavelength of 405±15 nm and 460±10 nm.

[1] = body weight and dietary intake of leptin receptor-deficient (ob/ob) mice; type: in vivo, mouse
Protocol: All experimental animal procedures were performed according to a guideline of Institutional Animal Care and Use Committee, Chungnam National University School of Medicine. OLETF rats were purchased from Otsuka Research Institute. Male ob/ob and C57BL/6 mice were purchased from Jackson Laboratory. Animals were housed in a breeding room maintained at a constant temperature of […] and a 12 h/12 h light/dark (L/D) cycle. 4-week-old C57BL/6 male mice were fed ad libitum high fat diet (HFD, 24% (w/w) and 45% calories as fat, Research Diets Inc., New Brunswick, N.J. 08901, US) for 7 weeks. Mouse groups were divided into an untreated group, a vehicle-treated group (calcium silicate), a pair-fed group and a candidate compound-treated group (calcium silicate-coated […] nanoparticles). Body weight and dietary intake of animals were daily measured. Upon completion of experiments, some mice of each group were anesthetized and received MRI examinations. The remaining mice of the groups were anatomized and tissue weight thereof was measured. Epidydimal fat, liver, soleus muscle and extensor digitorum longus (EDL) were prepared, and immunohistochemical, oil-red 0 and pH-sensitive ATPase staining were performed for analysis.
FIGS. 46 and 47 show changes in dietary intake/body weight and changes in body weight for 56 days, according to daily administration of pyrano-1,2-naphthoquinone into leptin receptor-deficient (ob/ob) mice at a dose of 200 mg/kg via an oral route.
This Example was intended to examine effects of varying in vivo NAD(P)^+/NAD(P)H ratio by arbitrary external supply of NAD(P)^+, a method capable of elevating the NAD(P)^+/NAD(P)H ratio in vivo. 100 mg/kg of NAD^+ was administered daily to leptin receptor-deficient (ob/ob) mice via an intraperitoneal (i.p.) route. A control mice group was given i.p. administration of physiological saline at the same dose. Changes in dietary intake/body weight (A) and changes in body weight (B) were measured for 30 days.
200 mg/kg of DMF was daily administered to leptin receptor-deficient (ob/ob) mice via an oral route. A control group received daily i.p. administration of physiological saline at the same dose. Changes in body weight (A) and changes in dietary intake (B) were measured for 30 days. It was confirmed that dietary intake of the treatment group was regulated to a 60 to 70% level of the control group.
For a variety of NQO1-activating candidate compounds as listed in Table 1 below, a decrease of NAD(P)H was measured based on the aforesaid experimental method (disclosed in Section 10 hereinbefore: NADH recycling assay). In addition, according to the experimental method given in Example 23, the body weight of ob/ob mice after four weeks was measured.
In this connection, the decreasing degree of NAD(P)H was expressed as a relative amount of NAD(P)H measured upon administration of the NQO1-activating candidate compound, by taking the amount of NAD(P)H in the absence of the NQO1 activator NAD(P)H to be 100. In addition, the degree of the body weight loss was expressed as a percentage of the body weight of ob/ob mice with administration of the NQO1-activating candidate compound, relative to the body weight of ob/ob mice without administration of the NQO1-activating candidate compound (control) after four weeks.

[2] = glucose tolerance and insulin sensitivity in OLETF rats; type: in vivo, rat; conditions: Days 3 and 21 after treatment
Protocol: Glucose tolerance test (GTT) was carried out for 12 h-fasted mice by a known method. As described above, 12 h-fasted mice received an insulin stimulation test
FIG. 45 is a graph showing glucose tolerance and insulin sensitivity measured in vehicle-treated ° LEIF rats and βL-treated OLETF rats. Glucose and insulin were i.p. and i.v. injected, respectively, and the blood glucose level was measured.

[3] = mean body temperature after cold exposure; type: in vivo, mouse; conditions: ambient temperature of 4 for 12 hours
[4] = muscle of DIO mice vs control group

Structure (SMILES): CC1(C)CCC2=C(O1)c1ccccc1C(=O)C2=O [βL, 2,2-Dimethyl-3,4-dihydro-2H-benzo[h]chromene-5,6-dione]
- 14C-palmitoyl CoA β-oxidation (ACC, CPT, HAD; [4]): significantly increased
- CPT activity (ACC, CPT, HAD; [4]): significantly increased
- HAD activity (ACC, CPT, HAD; [4]): significantly increased
- ACC activity (ACC, CPT, HAD; βL-treated DIO mice): decreased
- malonyl CoA level (ACC, CPT, HAD; βL-treated DIO mice): decreased
- decrease of NAD(P)H (HepG2 cells; HepG2 cells having NQO1 activity, NAD(P)H fluorescence): about 40%
- intracellular NADH concentration (HepG2 cells; HepG2 having an NQO1 activity, treatment for 2 hours, real-time measurement): concentration-dependent decrease of NADH
- body weight ([1]; 200 mg/kg daily oral, 56 days): effectively decreases body weight
- dietary intake level recovered, relative to control group ([1]; 200 mg/kg daily oral, after around 10 days): 70%
- dietary intake/body weight ([1]; 200 mg/kg daily oral, at around 10 days): notably decreased
- Weight reduction In ob/ob mice (4 wk) ([1]; after four weeks, relative to ob/ob mice without administration (control), method of Example 23): −16.8 ± 2.9%
- glucose tolerance and insulin sensitivity [2]: improvements in glucose tolerance and insulin sensitivity
- mean body temperature after cold exposure [3]: more resistant to the cold
